Test results reported in ChEMBL document CHEMBL5584242, “Discovery of pyridazinone derivatives bearing tetrahydroimidazo[1,2-a]pyrazine scaffold as potent inhibitors of transient receptor potential canonical 5 to ameliorate hypertension-induced renal injury in rats” (Eur J Med Chem, 2024).
Each block holds one molecule with its values, some of them ahead of it.

What was measured:
[1] = in vitro; conditions: human, liver microsomes
[2] = in vitro; conditions: mouse, liver microsomes, F
[3] = rat, microsomes
[4] = in vitro; conditions: human, liver microsomes, F
[5] = in vitro; conditions: rat, liver microsomes
[6] = in vitro; conditions: rat, liver microsomes, F
[7] = human, microsomes
[8] = in vitro; conditions: mouse, liver microsomes
[9] = mouse, microsomes
[10] = Drug distribution in ICR mouse heart at 10 mg/kg, po measured after 1 hr by LC-MS/MS analysis; type: ADME, organism-based; conditions: in vivo
[11] = Drug distribution in ICR mouse liver at 10 mg/kg, po measured after 1 hr by LC-MS/MS analysis; type: ADME, organism-based; conditions: in vivo
[12] = Half-life in ICR mouse at 10 mg/kg, po measured upto 24 hrs by LC-MS/MS analysis; type: ADME, organism-based; conditions: in vivo
[13] = Drug distribution in ICR mouse lung at 10 mg/kg, po measured after 1 hr by LC-MS/MS analysis; type: ADME, organism-based; conditions: in vivo
[14] = Drug distribution in ICR mouse kidney at 10 mg/kg, po measured after 1 hr by LC-MS/MS analysis; type: ADME, organism-based; conditions: in vivo
[15] = Tmax in ICR mouse at 10 mg/kg, po measured upto 24 hrs by LC-MS/MS analysis; type: ADME, organism-based; conditions: in vivo
[16] = Drug distribution in ICR mouse colon at 10 mg/kg, po measured after 1 hr by LC-MS/MS analysis; type: ADME, organism-based; conditions: in vivo
[17] = Drug distribution in ICR mouse spleen at 10 mg/kg, po measured after 1 hr by LC-MS/MS analysis; type: ADME, organism-based; conditions: in vivo
[18] = Drug distribution in ICR mouse brain at 10 mg/kg, po measured after 1 hr by LC-MS/MS analysis; type: ADME, organism-based; conditions: in vivo
[19] = Cmax in ICR mouse at 10 mg/kg, po measured upto 24 hrs by LC-MS/MS analysis; type: ADME, organism-based; conditions: in vivo
[20] = human, microsomes; remark: listed apart in the source
[21] = rat, microsomes; remark: listed apart in the source
[22] = mouse, microsomes; remark: listed apart in the source

half-life [1]: 41.5 min
Fh [2]: 45%
CLH [3]: 60.5 mL/min/g
Fh [4]: 27.9%
half-life [5]: 34.7 min
Fh [6]: 42.3%
CLH [7]: 50.6 mL/min/g
half-life [8]: 38.7 min
CLH [9]: 54.2 mL/min/g
SMILES: COC(c1ccc(F)cc1C(F)(F)F)c1cnc2n1CCN(c1cn[nH]c(=O)c1Cl)C2 (centres undefined)

SMILES: COC(c1ccc(F)cc1Cl)c1cnc2n1CCN(c1cn[nH]c(=O)c1Cl)C2 (stereo in doubt; 12)
Drug uptake [10]: Active
Drug uptake [11]: Active
half-life [12]: 118 min
Drug uptake [13]: Active
Drug uptake [14]: Active
Tmax [15]: 60 min
half-life ([1]; t1/2): 119 min
Fh [2]: 49.7%
Drug uptake [16]: Active
Drug uptake [17]: Active
CLH [3]: 97.3 mL/min/g
Fh [4]: 52.5%
half-life ([5]; t1/2): 21.6 min
Drug uptake [18]: Not Active
Fh [6]: 31.4%
CLH [7]: 17.7 mL/min/g
half-life ([8]; t1/2): 46.7 min
CLH [9]: 45 mL/min/g
Cmax [19]: 1150 ng/mL

SMILES: COC(c1ccc(F)cc1Cl)c1cnc2n1CCN(c1cn[nH]c(=O)c1Cl)C2 (stereo in doubt; 12-2)
t1/2 [20]: 120 min
CLH [3]: 142 mL/min/g
CLH [7]: 17.5 mL/min/g
t1/2 [21]: 14.8 min
CLH [9]: 41.8 mL/min/g
t1/2 [22]: 50.3 min
